Among the test systems are A549; DMS-273; EKVX; KM-20L2; M14; M19-MEL; Malme-3M; OVCAR-8; SK-MEL-2; SK-OV-3; SN12C; SNB-78; SW-620; KM12; NCI-H226; SNB-19.
Assay in all cases: NCI tumour cell line growth inhibition, 48 h

The values below come from ChEMBL document CHEMBL1201862, “PubChem BioAssay data set” (2004).

Molecules are shown by their SMILES.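 Following 48 hours of exposure in 96-well plates, responses at five concentrations were used to interpolate endpoints linearly. Abbreviation: GI50, concentration required for 50% inhibition of growth.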 Activity calls are given as the source filed them. Rule as the data show it: active = GI50 up to about 1.1 µM and inactive = higher. Where only a bound is given, the exact number is not on record here.

Take `CCC1=C(C[C@H]2NCCc3cc(OC)c(OC)cc32)C[C@H]2c3cc(OC)c(OC)cc3CCN2C1`: the GI50 is 0.0317 µM (active) in the assay on A549; 0.0274 µM (active) with DMS-273; 0.0362 µM (active) with EKVX; 0.0288 µM (active) with KM-20L2; 0.0235 µM (active) in the assay on M14; 0.0251 µM (active) in the assay with M19-MEL. The GI50 is 0.136 µM (active) in the assay with Malme-3M; 0.0272 µM (active) with OVCAR-8; 0.0248 µM (active) in the assay with SK-MEL-2; 0.0637 µM (active) in the assay with SK-OV-3; 0.0326 µM (active) in the assay with SN12C; 0.0388 µM (active) with SNB-78. In addition, the GI50 in the assay with SW-620 was 0.028 µM (active).

Regarding `Nc1nc2[nH]c(=O)cnc2c(=O)[nH]1` [ISOXANTHOPTERIN], the GI50 with A549 is > 125 µM (inactive); in the assay on DMS-273, > 125 µM (inactive); in the assay on EKVX, > 125 µM (inactive); in the assay with KM-20L2 it was > 72.4 µM (inactive); in the assay on KM12 it was > 125 µM (inactive); with M19-MEL, > 85.1 µM (inactive). The GI50 in the assay on Malme-3M was > 108 µM (inactive); in the assay with NCI-H226 it was > 125 µM (inactive); with OVCAR-8, > 125 µM (inactive); in the assay with SK-MEL-2, > 125 µM (inactive); in the assay on SK-OV-3, > 125 µM (inactive); in the assay on SN12C, > 125 µM (inactive). Besides, the GI50 in the assay with SNB-19, with SNB-78 and with SW-620 was > 125 µM (inactive) throughout.

`CCOC(=O)C1C=C2O[C@@H]3OC4(CCCCC4)O[C@@H]3C2[C@H]2C(=O)C=CC(=O)[C@@]12C(=O)OC` (some centres not stated): the GI50 in the assay with A549 is 14.5 µM (inactive); with DMS-273 it was 8.65 µM (inactive); in the assay with EKVX, 16.6 µM (inactive); in the assay on KM-20L2, 14.5 µM (inactive); with KM12, 12.3 µM (inactive); in the assay with M14 it was 15.9 µM (inactive). Moreover, the GI50 is 16 µM (inactive) in the assay with M19-MEL; 17.2 µM (inactive) with Malme-3M; 20.6 µM (inactive) in the assay on NCI-H226; 6.41 µM (inactive) with OVCAR-8; 16.1 µM (inactive) in the assay on SK-MEL-2; 18.2 µM (inactive) in the assay on SK-OV-3. The GI50 in the assay with SN12C is 16.7 µM (inactive); in the assay with SNB-19, 8.38 µM (inactive); in the assay with SNB-78, 6.49 µM (inactive); with SW-620 it was 12.8 µM (inactive).

In the case of `CSc1nc2c(ncn2C2OC(CO)C(O)C(O)C2O)c(=O)n1C` (configuration not stated), the GI50 in the assay with A549, with DMS-273, in the assay with EKVX, with KM-20L2, in the assay on KM12 and in the assay with M19-MEL was > 100 µM (inactive) in each case. The GI50 in the assay on Malme-3M, in the assay with NCI-H226, in the assay on OVCAR-8, in the assay with SK-MEL-2, in the assay on SK-OV-3 and in the assay on SN12C was > 100 µM (inactive) throughout. Moreover, the GI50 in the assay with SNB-19, with SNB-78 and with SW-620 was > 100 µM (inactive) each time.

Turning to `CC12CCCC(C#N)(C1)OC2=O` (configuration not stated), the GI50 in the assay on A549, with DMS-273, in the assay with EKVX, in the assay on KM-20L2, in the assay on KM12 and with M14 was > 100 µM (inactive) each time. In addition, the GI50 in the assay on M19-MEL, in the assay on Malme-3M, in the assay on NCI-H226, in the assay with OVCAR-8, in the assay on SK-MEL-2 and in the assay with SK-OV-3 was > 100 µM (inactive) throughout. The GI50 in the assay with SN12C, in the assay with SNB-19, with SNB-78 and in the assay with SW-620 was > 100 µM (inactive) in each case.

In the case of `COC(=O)C1=C(\O)C[C@@]2(C)CC[C@@H](C(=O)OC)C2C/C=C\1C(=O)OC` (some centres not stated), the GI50 in the assay on A549 is 87.7 µM (inactive); in the assay on DMS-273, > 100 µM (inactive); in the assay with EKVX, > 100 µM (inactive); in the assay with KM-20L2, > 100 µM (inactive); with KM12 it was > 100 µM (inactive); in the assay with M14, > 100 µM (inactive). Moreover, the GI50 in the assay on M19-MEL is > 100 µM (inactive); with Malme-3M, > 100 µM (inactive); in the assay with NCI-H226, 89.1 µM (inactive); in the assay on OVCAR-8 it was > 100 µM (inactive); with SK-OV-3, > 100 µM (inactive); with SN12C it was 24.1 µM (inactive). In addition, the GI50 in the assay on SNB-19, in the assay with SNB-78 and in the assay on SW-620 was > 100 µM (inactive) in each case.

Take `O=NN1C(c2ccccc2)C2CCCC(C2=O)C1c1ccccc1` (configuration not stated): the GI50 was 34 µM (inactive) in the assay with A549; 23.8 µM (inactive) in the assay with DMS-273; 28.4 µM (inactive) in the assay on EKVX; 16 µM (inactive) with KM-20L2; 32.5 µM (inactive) with KM12; 18.9 µM (inactive) in the assay on M19-MEL. Moreover, the GI50 in the assay on Malme-3M was 7.53 µM (inactive); in the assay on NCI-H226 it was 25.1 µM (inactive); with OVCAR-8, 37.7 µM (inactive); in the assay with SK-MEL-2, 20.2 µM (inactive); with SK-OV-3 it was 24.5 µM (inactive); with SN12C, 26.2 µM (inactive). The GI50 was 42.6 µM (inactive) in the assay with SNB-19, 40.3 µM (inactive) in the assay on SNB-78 and 43.9 µM (inactive) in the assay on SW-620.

`O=c1[nH]c(-c2ccc([N+](=O)[O-])cc2)nc2ccc(Cl)cc12`: the GI50 with A549, in the assay on DMS-273, with EKVX, in the assay with KM-20L2, in the assay with KM12 and with M19-MEL was > 100 µM (inactive) throughout. In addition, the GI50 was > 100 µM (inactive) with Malme-3M; > 10 µM (inactive) with NCI-H226; > 100 µM (inactive) in the assay with OVCAR-8; > 100 µM (inactive) with SK-MEL-2; 77.3 µM (inactive) in the assay on SK-OV-3; > 100 µM (inactive) with SN12C. Besides, the GI50 was 66.2 µM (inactive) in the assay on SNB-19, > 100 µM (inactive) in the assay with SNB-78 and > 100 µM (inactive) with SW-620.

As to `CC1CCC2(CC1)NN=c1s/c(=C\c3ccc(O)cc3)c(=O)n1N2` (configuration not stated), the GI50 with A549, with DMS-273, in the assay with EKVX, in the assay on KM-20L2, in the assay with KM12 and in the assay on M14 was > 100 µM (inactive) throughout. The GI50 in the assay with M19-MEL, with NCI-H226, in the assay with OVCAR-8, in the assay on SK-OV-3, with SN12C and in the assay on SNB-19 was > 100 µM (inactive) in each case. Further, the GI50 in the assay with SNB-78 and in the assay with SW-620 was > 100 µM (inactive) in each case.

With `O=C(c1ccccc1)c1nnn(Cc2cccc(Cl)c2)c1C(=O)c1ccccc1`, the GI50 in the assay with A549 is 25.2 µM (inactive); with DMS-273, > 100 µM (inactive); in the assay with EKVX, 44.8 µM (inactive); with KM-20L2 it was > 100 µM (inactive); in the assay on KM12 it was > 100 µM (inactive); in the assay with M14, > 100 µM (inactive). In addition, the GI50 with M19-MEL is > 100 µM (inactive); in the assay with Malme-3M it was > 100 µM (inactive); with NCI-H226, > 100 µM (inactive); in the assay on OVCAR-8, > 100 µM (inactive); in the assay with SK-MEL-2, > 100 µM (inactive); in the assay with SK-OV-3, 34.8 µM (inactive). Also, the GI50 in the assay on SNB-19, with SNB-78 and with SW-620 was > 100 µM (inactive) in each case.

In the case of `O=[N+]([O-])c1ccc(-c2ccc(-c3csc(Nc4ccccn4)n3)o2)cc1`, the GI50 was 35.2 µM (inactive) with DMS-273; > 100 µM (inactive) with KM-20L2; 49.5 µM (inactive) with KM12; 59.6 µM (inactive) in the assay with M14; 58.6 µM (inactive) with M19-MEL; 32.3 µM (inactive) in the assay on Malme-3M. The GI50 in the assay on OVCAR-8 was 64.7 µM (inactive); in the assay with SK-MEL-2, > 100 µM (inactive); in the assay on SK-OV-3, 14.3 µM (inactive); in the assay on SN12C, 41.4 µM (inactive); with SNB-19 it was 20.2 µM (inactive); in the assay on SNB-78, 28.2 µM (inactive). Besides, the GI50 in the assay with SW-620 is > 100 µM (inactive).

Turning to `O=C(Nc1ccn(CCOC(=O)c2ccccc2)c(=O)n1)c1ccccc1`, the GI50 in the assay with A549, in the assay with DMS-273, with EKVX, with KM-20L2, in the assay on KM12 and in the assay on M14 was > 100 µM (inactive) throughout. Moreover, the GI50 with M19-MEL, in the assay on Malme-3M, with NCI-H226, in the assay with OVCAR-8, with SK-MEL-2 and in the assay with SK-OV-3 was > 100 µM (inactive) each time. Further, the GI50 with SN12C, in the assay on SNB-78 and in the assay on SW-620 was > 100 µM (inactive) in each case.

With `Cn1c(=O)c2ccccc2c2nc3ccccc3nc21`, the GI50 with A549, in the assay with DMS-273, in the assay on EKVX, in the assay with KM-20L2, in the assay on KM12 and with M19-MEL was > 100 µM (inactive) each time. The GI50 is > 100 µM (inactive) in the assay on Malme-3M; > 100 µM (inactive) with NCI-H226; > 100 µM (inactive) in the assay with OVCAR-8; > 100 µM (inactive) in the assay with SK-MEL-2; 37.2 µM (inactive) in the assay on SK-OV-3; > 100 µM (inactive) in the assay with SN12C. The results for the GI50 in the assay on SNB-19, with SNB-78 and with SW-620 were > 100 µM (inactive), 68.7 µM (inactive) and > 100 µM (inactive), respectively.
